Measured values as given in patent USRE49735E1 (BRISTOL-MYERS SQUIBB COMPANY, priority 2010, dated 2023).
pEC50: −log10 of the molar value. “And” between values parts separate entries of the source, which are not always exact repeats. Identical values can stand only once.

These compounds were tested against human mGluR5A (Homo sapiens, UniProt P41594) (assay: mGluR5 FLIPR Assay). Settings: positive modulator activity; HEK293 (ZF) cells with human mGluR5A and rat GLAST; Ca++ response to ~EC10 glutamate.
Assay type: cell-based

Sequence of human mGluR5A (P41594 21-1180 isoform P41594-2): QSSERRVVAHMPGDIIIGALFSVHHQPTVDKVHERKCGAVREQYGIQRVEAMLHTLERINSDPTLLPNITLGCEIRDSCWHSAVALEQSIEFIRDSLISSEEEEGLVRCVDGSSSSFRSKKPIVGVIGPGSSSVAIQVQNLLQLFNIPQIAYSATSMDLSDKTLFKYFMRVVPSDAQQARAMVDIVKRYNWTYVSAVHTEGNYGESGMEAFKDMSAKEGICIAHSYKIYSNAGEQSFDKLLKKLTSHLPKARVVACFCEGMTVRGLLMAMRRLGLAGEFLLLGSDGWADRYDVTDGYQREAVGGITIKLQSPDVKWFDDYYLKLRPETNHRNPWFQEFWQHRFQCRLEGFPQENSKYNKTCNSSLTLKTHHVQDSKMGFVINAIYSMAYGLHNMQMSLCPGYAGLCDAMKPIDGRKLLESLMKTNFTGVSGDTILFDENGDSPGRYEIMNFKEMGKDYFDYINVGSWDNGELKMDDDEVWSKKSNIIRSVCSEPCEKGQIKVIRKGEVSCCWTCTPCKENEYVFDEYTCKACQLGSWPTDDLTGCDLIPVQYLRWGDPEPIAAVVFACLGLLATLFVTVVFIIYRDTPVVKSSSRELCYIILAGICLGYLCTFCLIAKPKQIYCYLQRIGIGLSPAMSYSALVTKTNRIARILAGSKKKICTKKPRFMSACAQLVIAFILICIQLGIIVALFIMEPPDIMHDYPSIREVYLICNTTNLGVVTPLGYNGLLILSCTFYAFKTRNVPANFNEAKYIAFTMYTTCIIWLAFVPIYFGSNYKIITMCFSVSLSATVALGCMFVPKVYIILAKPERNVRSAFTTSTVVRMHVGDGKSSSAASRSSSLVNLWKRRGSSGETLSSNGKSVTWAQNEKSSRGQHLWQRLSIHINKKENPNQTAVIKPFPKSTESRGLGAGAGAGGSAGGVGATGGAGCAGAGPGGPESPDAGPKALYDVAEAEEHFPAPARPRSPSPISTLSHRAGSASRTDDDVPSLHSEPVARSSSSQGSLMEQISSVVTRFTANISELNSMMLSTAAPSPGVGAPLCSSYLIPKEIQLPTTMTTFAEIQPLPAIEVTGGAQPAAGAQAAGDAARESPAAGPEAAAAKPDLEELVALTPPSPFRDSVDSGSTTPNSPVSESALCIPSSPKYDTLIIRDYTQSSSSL

SMILES	pEC50
COc1cccc([C@H]2OC(=O)N[C@@H]2c2cccc(C#Cc3csc(C)n3)c2)c1 [Example 52, (4R,5R)-5-(3-Methoxyphenyl)-4-(3-((2-methylthiazol-4-yl)ethnyl)phenyl)oxazolidin-2-one]	< 4.52
COc1cccc([C@H]2OC(=O)N[C@@H]2c2cccc(C#Cc3cccc(OC)n3)c2)c1 [Example 61]	> 7.00
COc1cccc([C@H]2OC(=O)N[C@@H]2c2cccc(C#Cc3cnccn3)c2)c1 [Example 63, (4R,5R)-5-(3-Methoxyphenyl)-4-(3-(pyrazin-2-ylethynyl)phenyl)oxazolidin-2-one]	> 7.00
COc1cccc([C@H]2OC(=O)N[C@@H]2c2cccc(C#Cc3ncccn3)c2)c1 [Example 64, (4R,5R)-5-(3-Methoxyphenyl)-4-(3-(pyrimidin-2-ylethynyl)phenyl)oxazolidin-2-one]	< 4.52
COc1cccc([C@H]2OC(=O)N[C@@H]2c2cccc(C#Cc3cncnc3)c2)c1 [Example 65, (4R,5R)-5-(3-Methoxyphenyl)-4-(3-(pyrimidin-5-ylethynyl)phenyl)oxazolidin-2-one]	6.00 to 7.00 and 6.86
COc1cccc([C@H]2OC(=O)N[C@@H]2c2cccc(C#Cc3ccc4ccccc4n3)c2)c1 [Example 66, (4R,5R)-5-(3-Methoxyphenyl)-4-(3-(quinolin-2-ylethynyl)phenyl)oxazolidin-2-one]	6.00 to 7.00
COc1cccc([C@H]2OC(=O)N[C@@H]2c2cccc(C#Cc3cc4ccccc4cn3)c2)c1 [Example 67, (4R,5R)-4-(3-(Isoquinolin-3-ylethynyl)phenyl)-5-(3-methoxyphenyl)oxazolidin-2-one]	< 6.00
COc1cccc([C@H]2OC(=O)N[C@@H]2c2cccc(C#Cc3cscn3)c2)c1 [Example 68]	> 7.00

The remaining lines, values ahead:

pEC50	SMILES
> 7.00	COc1cccc([C@H]2OC(=O)N[C@@H]2c2cccc(C#Cc3ccncc3)c2)c1 [Example 51]
< 6.00	COc1cccc([C@H]2OC(=O)N[C@@H]2c2cccc(C#Cc3cccnc3C#N)c2)c1 [Example 53, 3-((3-((4R,5R)-5-(3-Methoxyphenyl)-2-oxooxazolidin-4-yl)phenyl)ethynyl)picolinonitrile]
< 6.00	COc1cccc([C@H]2OC(=O)N[C@@H]2c2cccc(C#Cc3cccc(C)c3)c2)c1 [Example 54, (4R,5R)-5-(3-Methoxyphenyl)-4-(3-(m-tolylethnyl)phenyl)oxazolidin-2-one]
> 7.00	COc1cccc([C@H]2OC(=O)N[C@@H]2c2cccc(C#Cc3cccc(C#N)c3)c2)c1 [Example 55]
< 6.00	COc1cccc([C@H]2OC(=O)N[C@@H]2c2cccc(C#Cc3ccnc(C#N)c3)c2)c1 [Example 56, 4-((3-((4R,5R)-5-(3-Methoxyphenyl)-2-oxooxazolidin-4-yl)phenyl)ethynyl)nicolinonitrile]
< 4.52	COc1cccc([C@H]2OC(=O)N[C@@H]2c2cccc(C#Cc3ccnc(Cl)c3)c2)c1 [Example 57, (4R,5R)-4-(3-((2-Chloropyridin-4-yl)ethynyl)phenyl)-5-(3-methoxyphenyl)oxazolidin-2-one]
< 4.52	COc1cccc([C@H]2OC(=O)N[C@@H]2c2cccc(C#Cc3cccc(N(C)C)c3)c2)c1 [Example 58, (4R,5R)-4-(3-((3-(Dimethylamino)phenyl)ethnyl)phenyl)-5-(3-methoxyphenyl)oxazolidin-2-one]
> 7.00	COc1cccc(C#Cc2cccc([C@H]3NC(=O)O[C@@H]3c3cccc(OC)c3)c2)c1 [Example 59, (4R,5R)-5-(3-Methoxyphenyl)-4-(3-((3-methoxyphenyl)ethynyl)phenyl)oxazolidin-2-one]
< 6.00	COc1cccc([C@H]2OC(=O)N[C@@H]2c2cccc(C#Cc3ccnc(C)c3)c2)c1 [Example 60, (4R,5R)-5-(3-Methoxyphenyl)-4-(3-((2-methylpyridin-4-yl)ethnyl)phenyl)oxazolidin-2-one]
< 6.00	COc1cccc([C@H]2OC(=O)N[C@@H]2c2cccc(C#Cc3ncc[nH]3)c2)c1 [Example 62, (4R,5R)-4-(3-((1H-imidazol-2-yl)ethnyl)phenyl)-5-(3-methoxyphenyl)oxazolidin-2-one]
